Assay results reported in patent US10603322B2, “Therapeutic targeting of casein kinase 1δ in breast cancer” (The Scripps Research Institute, priority 2015, dated 2020).

Key:
MDA-MB-231-luc tumors = assay: Orthotopic MDA-MB-231-luc tumor model, treatment from day 7; format: in vivo, nude mice; conditions: 20 mg/kg daily i.p.
Text: (§1) All animal studies are approved by the Scripps Florida IACUC. Stable pools of MDA-MB-231-Luc, MDA-MB-231, MDA-MB-468, SKBR3 or BT474 cells were established by injection of 2×10^6 cancer cells into the mammary fat pads of 6-week old female athymic nude mice (Charles River Laboratories). Establishment of BCM-4013 patient derived xenografts were as described (19). Briefly, fresh xenograft tumor fragments (˜1 mm^3) were transplanted into the cleared mammary fat pad of recipient SCID/Bg mice (Charles River Laboratories). Mice were treated with SR-3029 or vehicle (10:10:80, DMSO:Tween-80:Water) at 20 mg/kg daily by i.p. injection. Tumor volumes were measured as the indicated intervals using calipers or by luminescence imaging using the IVIS 100 imager (exposure time, 1-60 sec; binning 8; field of view 15-cm; f/stop 1; open filter) following subcutaneous injection of luciferin (15 mg/ml, Goldbio Technology). Average radiance (p/s/cm^2/sr) was determined from tumor region-of-interest (ROI) using Living-Image (Xenogen) analysis software.

[1] = test system: β-catenin/TCF target genes; assay: Expression of Wnt/β-catenin and Notch pathway genes (immunoblot, qPCR); format: cell-based, human; conditions: 24 hr, 100 nM
Experimental: SDS-PAGE gel electrophoresis was performed using NuPAGE 4-12% Bis-Tris gels (Invitrogen) and transferred to PVDF membranes by semi-dry transfer using trans-blot transfer medium (Biorad). Membranes were blocked in Odyssey blocking buffer (LI-COR Biosciences) and incubated overnight at 4° C. with primary antibodies. After repeated washes with TBST (20 mM Tris, pH 7.6, 140 mM NaCl and 0.1% Tween-20) blots were incubated with the appropriate IRDye-conjugated secondary antibody (LI-COR Biosciences) and imaged using the LI-COR Odyssey. Bands were quantified using the Odyssey software (LI-COR Biosciences). The following antibodies were used in this study: CK1δ and Histone H4 (Abcam), CK1ε, c-Myc (9E10), Cyclin-D1 and β-actin (Santa Cruz), β-catenin (Cell Signaling), GAPDH (Millipore) and CD44 (R&D Systems).
Total RNA was obtained using the RNeasy Plus Mini Kit (Qiagen) and 1-2 μg of RNA was reverse transcribed with Superscript III First Strand Synthesis System (Life Technologies). Quantitative PCR was performed using the Power SYBR Green PCR Master Mix (Life Technologies) and the ABI7900HT Fast Real-Time PCR System. Intron-spanning gene-specific primer pairs were designed using the Primer3 algorithm and relative expression values for each gene of interest obtained by normalizing to GAPDH mRNA expression using the ^ΔΔCt method.

kinome = conditions: cited from earlier work
[2] = test system: SKBR3 (HER2+) tumor xenografts; assay: Established orthotopic tumor xenograft; format: in vivo, nude mice; conditions: 20 mg/kg daily i.p.; tumors 100-mm^3 before treatment
Text: as §1

[3] = test system: BT474 (HER2+) tumor xenografts; assay: Established orthotopic tumor xenograft; format: in vivo, nude mice; conditions: 20 mg/kg daily i.p.; tumors 100-mm^3 before treatment
Text: as §1

[4] = test system: MDA-MB-468 (TNBC) tumor xenografts; assay: Established orthotopic tumor xenograft; format: in vivo, nude mice; conditions: 20 mg/kg daily i.p.; tumors 100-mm^3 before treatment
Text: as §1

BCM-4013 PDX tumors = assay: Patient-derived xenograft (PDX) model; format: in vivo, SCID/Bg mice; conditions: 20 mg/kg daily i.p.
Text: as §1
For apoptotic detection in cryosections tumors and small intestines were fixed in 10% buffered formalin for 2 hr, incubated in 20% sucrose overnight and embedded in OCT. Frozen sections ([…]) were mounted and stained using the ApopTag Red In Situ Kit according to the manufacturer instructions (CHEMICON). […]

[5] = test system: activated β-catenin signaling; assay: Wnt/β-catenin markers in MDA-MB-231 tumors of treated mice; format: in vivo; conditions: 20 mg/kg once daily i.p.
Text: All animal studies are approved by the Scripps Florida IACUC. Stable pools of MDA-MB-231-Luc, MDA-MB-231, MDA-MB-468, SKBR3 or BT474 cells were established by injection of 2×10^6 cancer cells into the mammary fat pads of 6-week old female athymic nude mice (Charles River Laboratories). Establishment of BCM-4013 patient derived xenografts were as described (19). Briefly, fresh xenograft tumor fragments (˜1 mm^3) were transplanted into the cleared mammary fat pad of recipient SCID/Bg mice (Charles River Laboratories). Mice were treated with SR-3029 or vehicle (10:10:80, DMSO:Tween-80:Water) at 20 mg/kg daily by i.p. injection. Tumor volumes were measured as the indicated intervals using calipers or by luminescence imaging using the IVIS 100 imager (exposure time, 1-60 sec; binning 8; field of view 15-cm; f/stop 1; open filter) following subcutaneous injection of luciferin (15 mg/ml, Goldbio Technology). Average radiance (p/s/cm^2/sr) was determined from tumor region-of-interest (ROI) using Living-Image (Xenogen) analysis software. SDS-PAGE gel electrophoresis was performed using NuPAGE 4-12% Bis-Tris gels (Invitrogen) and transferred to PVDF membranes by semi-dry transfer using trans-blot transfer medium (Biorad). Membranes were blocked in Odyssey blocking buffer (LI-COR Biosciences) and incubated overnight at 4° C. with primary antibodies. After repeated washes with TBST (20 mM Tris, pH 7.6, 140 mM NaCl and 0.1% Tween-20) blots were incubated with the appropriate IRDye-conjugated secondary antibody (LI-COR Biosciences) and imaged using the LI-COR Odyssey. Bands were quantified using the Odyssey software (LI-COR Biosciences). The following antibodies were used in this study: CK1δ and Histone H4 (Abcam), CK1ε, c-Myc (9E10), Cyclin-D1 and β-actin (Santa Cruz), β-catenin (Cell Signaling), GAPDH (Millipore) and CD44 (R&D Systems). Total RNA was obtained using the RNeasy Plus Mini Kit (Qiagen) and 1-2 μg of RNA was reverse transcribed with Superscript III First Strand Synthesis System (Life Technologies). Quantitative PCR was performed using the Power SYBR Green PCR Master Mix (Life Technologies) and the ABI7900HT Fast Real-Time PCR System. Intron-spanning gene-specific primer pairs were designed using the Primer3 algorithm and relative expression values for each gene of interest obtained by normalizing to GAPDH mRNA expression using the ^ΔΔCt method.

SMILES: Fc1cccc(-n2cnc3c(NCc4nc5ccc(F)c(F)c5[nH]4)nc(N4CCOCC4)nc32)c1 [SR-3029]
- tumor growth (MDA-MB-231-luc tumors; single agent, start seven days after engraftment): markedly impaired tumor growth
- recipients that developed tumors (MDA-MB-231-luc tumors; n=8 per cohort): 2
- Notch pathway mRNAs (JAG1, NUMB, DTX) [1]: no effect
- expression of endogenous β-catenin/TCF target genes (CCND1, MYC, CD44, WNT3, WNT9A) [1]: repressed
- expression of the endogenous Wnt antagonist SFRP1 [1]: marked increase
- off-target kinase affinity (kinome; CDK4, MYLK4 and FLT3, in addition to CK1δ and CK1ε): weaker affinity for only three kinases
- fraction of the kinome inhibited (kinome): 1%
- tumor growth [2]: marked tumor growth inhibition
- tumor growth [3]: marked tumor growth inhibition
- tumor growth [4]: marked tumor growth inhibition
- tumor cell apoptosis (TUNEL) (BCM-4013 PDX tumors): triggered tumor cell apoptosis
- growth of PDX tumors (BCM-4013 PDX tumors; p=0.0002): significantly inhibited the growth
- CCND1, WNT3, WNT9A and RARA mRNA transcripts in tumors ([5]; 7 days): decreases
- SFRP1 transcripts in tumors ([5]; 7 days): marked increase
- expression of nuclear β-catenin in tumors ([5]; 7 days): markedly reduced
- CCND1 protein in tumors ([5]; day 7): down-regulation
